Laboratory results taken from patent publication US11970499B1, “Pyrazolo[1,5-c]pyrimidine compounds as CK2 inhibitors” (KING FAISAL UNIVERSITY, priority 2023, dated 2024).

Legend:
recombinant human CK2 = target: T1, recombinant human CK2 (Homo sapiens, UniProt P68400); assay: CK2 Kinase Assay (33P-ATP, substrate peptide RRRDDDSDDD); assay type: biochemical; conditions: recombinant human CK2 holoenzyme, final ATP 15 μM, 10 min at 30° C.; read-out: protein kinase CK2 activity IC50
T1 construct: purchased Millipore
T1 sequence (P68400 whole entry): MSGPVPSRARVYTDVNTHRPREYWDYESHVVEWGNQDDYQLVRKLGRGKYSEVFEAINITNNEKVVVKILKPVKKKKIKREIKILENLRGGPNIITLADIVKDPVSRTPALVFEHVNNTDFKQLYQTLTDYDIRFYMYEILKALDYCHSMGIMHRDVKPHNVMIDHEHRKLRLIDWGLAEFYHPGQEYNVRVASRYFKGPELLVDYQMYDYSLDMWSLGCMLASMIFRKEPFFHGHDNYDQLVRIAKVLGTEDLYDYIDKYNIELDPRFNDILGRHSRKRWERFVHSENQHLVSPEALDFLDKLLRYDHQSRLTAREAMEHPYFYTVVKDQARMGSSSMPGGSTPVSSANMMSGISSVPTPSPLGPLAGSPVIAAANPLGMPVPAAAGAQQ
T1 sequence (P67870 whole entry partner): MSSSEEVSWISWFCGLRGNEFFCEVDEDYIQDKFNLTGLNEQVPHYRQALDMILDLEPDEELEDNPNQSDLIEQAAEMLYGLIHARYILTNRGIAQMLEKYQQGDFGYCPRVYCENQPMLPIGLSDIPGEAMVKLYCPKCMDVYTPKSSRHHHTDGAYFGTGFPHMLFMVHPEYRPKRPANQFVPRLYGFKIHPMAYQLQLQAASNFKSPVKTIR
Method: CK2 Kinase Assay was conducted using the protocol as described in Pierre F. et al; J. Med. Chem. 2011, 54, 635-654. The tested compounds in aqueous solution were added at a volume of 10 μL to a reaction mixture comprising 10 μL of assay dilution buffer (ADB; 20 mM MOPS, pH 7.2, 25 mM β-glycerol phosphate, 5 mM EGTA, 1 mM sodium orthovanadate, and 1 mM dithiothreitol), 10 μL of substrate peptide (RRRDDDSDDD, dissolved in ADB at a concentration of 1 mM), 10 μL of recombinant human CK2 (RRββ-holoenzyme, 25 ng dissolved in ADB; Millipore). Reactions were initiated by the addition of 10 μL of ATP solution (90% 75 mMMgCl2, 75 sM ATP (final ATP concentration:15 μM) dissolved in ADB; 10% [γ-^33P] ATP (stock 1 mCi/100 μL; 3000 Ci/mmol (Perkin-Elmer) and maintained for 10 min at 30° C. The reactions were quenched with 100 μL of 0.75% phosphoric acid and then transferred to and filtered through a phosphor cellulose filter plate (Millipore). After washing each well five times with 0.75% phosphoric acid, the plate was dried under vacuum for 5 min and, following the addition of 15 μL of scintillation fluid to each well, the residual radioactivity was measured using a Wallac luminescence counter. The IC50 values were derived from eight concentrations of test inhibitors.

PC3 (prostate) = assay: MTT in vitro cytotoxic activity assay, PC3; assay type: cell-based; conditions: Homo sapiens, PC-3; PC3 cells, exposed for 96 hours; read-out: Cytotoxicity activity IC50, PC3 (prostate)
Method: (§1) Compounds 1-20 were screened for their in vitro cytotoxic activity utilizing a 3-(4,5-dimethyl-thiazol-2-yl)-2,5-diphenyltetrazolium bromide (MTT) assay against selected cancer human cell lines consisting of PC3 (prostate), HCT 116 (colon), A375 (melanoma), H1299 (lung), MIAPaCa-2 (pancreas), HL60 (leukemia), MCF7 (breast), MDA-MB-231 (breast) (T. Mosmann, J. Immunol. Meth., 1983, 65, 55-63). The cells were cultured at 37° C. in RMPI1640 medium supplemented with 10% fetal bovine serum, 50 IU/mL penicillin, and 50 μg/mL streptomycin in a 5% CO2 incubator. All cells were sub-cultured 3 times/week by trypsinisation. Viable cells were seeded and allowed to adhere for 12 h before a test drug was added in 96-well plates at an initial density of 1.0×10^5 cells/mL. Tumor cell lines were separately exposed to various concentrations of the tested compounds followed by incubation at a temperature of 37° C. during 96 hours inside a medium of fresh RMPI 1640. Cells were subsequently incubated at 37° C. using MTT at 0.5 mg/mL during 4 hours. After removal of supernatant, formazan crystals were dissolved in isopropanol and the optical density was measured at 570 nm. CX-4945 was used as a positive control.

H1299 (lung) = assay: MTT in vitro cytotoxic activity assay, H1299; assay type: cell-based; conditions: Homo sapiens, NCI-H1299; H1299 cells, exposed for 96 hours; read-out: Cytotoxicity activity IC50, H1299 (lung)
Method: as §1

MCF7 (breast) = assay: MTT in vitro cytotoxic activity assay, MCF7; assay type: cell-based; conditions: Homo sapiens; MCF7 cells, exposed for 96 hours; read-out: Cytotoxicity activity IC50, MCF7 (breast)
Method: as §1

HL60 (leukemia) = assay: MTT in vitro cytotoxic activity assay, HL60; assay type: cell-based; conditions: Homo sapiens, HL-60; HL60 cells, exposed for 96 hours; read-out: Cytotoxicity activity IC50, HL60 (leukemia)
Method: as §1

A375 (melanoma) = assay: MTT in vitro cytotoxic activity assay, A375; assay type: cell-based; conditions: Homo sapiens, A-375; A375 cells, exposed for 96 hours; read-out: Cytotoxicity activity IC50, A375 (melanoma)
Method: as §1

MIAPaCa-2 (pancreas) = assay: MTT in vitro cytotoxic activity assay, MIAPaCa-2; assay type: cell-based; conditions: Homo sapiens, MIA PaCa-2; MIAPaCa-2 cells, exposed for 96 hours; read-out: Cytotoxicity activity IC50, MIAPaCa-2 (pancreas)
Method: as §1

MDA-MB-231 (breast) = assay: MTT in vitro cytotoxic activity assay, MDA-MB-231; assay type: cell-based; conditions: Homo sapiens; MDA-MB-231 cells, exposed for 96 hours; read-out: Cytotoxicity activity IC50, MDA-MB-231 (breast)
Method: as §1

HCT116 (colon) = assay: MTT in vitro cytotoxic activity assay, HCT116; assay type: cell-based; conditions: Homo sapiens, HCT-116; HCT116 cells, exposed for 96 hours; read-out: Cytotoxicity activity IC50, HCT116 (colon)
Method: as §1

- IC50 (recombinant human CK2): 110 nM
Structure (SMILES): Clc1cccc(Nc2c(-c3ccncn3)nn3cnccc23)c1 [Compound 13, N-(3-chlorophenyl)-2-(pyrimidin-4-yl)pyrazolo[1,5-c]pyrimidin-3-amine]
- IC50 (PC3 (prostate)): 1200 nM
- IC50 (H1299 (lung)): 1600 nM
- IC50 (MCF7 (breast)): 5500 nM
- IC50 (HL60 (leukemia)): 3900 nM
- IC50 (A375 (melanoma)): 3400 nM
- IC50 (MIAPaCa-2 (pancreas)): 1500 nM
- IC50 (MDA-MB-231 (breast)): 4600 nM
- IC50 (HCT116 (colon)): 2100 nM
